From ChEMBL document CHEMBL1201862, “PubChem BioAssay data set” (2004)
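Results reflect a 48-hour exposure of cells in 96-well plates to compound at five concentrations. At the GI50, growth is halved.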 Calls of active or inactive are those of the source. Rule as the data show it: active = GI50 up to about 1.1 µM and inactive = higher.

Assays:
Assay in all cases: growth of human tumour cells (NCI), 48 h
MDA-MB-231 = test system: MDA-MB-231
A498 = test system: A498
SK-MEL-5 = test system: SK-MEL-5
PC-3 = test system: PC-3
HL-60 = test system: HL-60
SR = test system: SR
UO-31 = test system: UO-31
Malme-3M = test system: Malme-3M
SF-295 = test system: SF-295
NCI-H226 = test system: NCI-H226
COLO 205 = test system: COLO 205
Hs-578T = test system: Hs-578T
HOP-92 = test system: HOP-92
HOP-62 = test system: HOP-62
TK-10 = test system: TK-10
M14 = test system: M14
DU-145 = test system: DU-145
UACC-62 = test system: UACC-62
OVCAR-5 = test system: OVCAR-5
KM-20L2 = test system: KM-20L2

SMILES | GI50 (MDA-MB-231) | GI50 (A498) | GI50 (SK-MEL-5) | GI50 (PC-3) | GI50 (HL-60) | GI50 (SR) | GI50 (UO-31) | GI50 (Malme-3M) | GI50 (SF-295) | GI50 (NCI-H226) | GI50 (COLO 205) | GI50 (Hs-578T) | GI50 (HOP-92) | GI50 (HOP-62) | GI50 (TK-10) | GI50 (M14) | GI50 (DU-145) | GI50 (UACC-62) | GI50 (OVCAR-5) | GI50 (KM-20L2)
COc1ccc(C(=O)/C=C/c2cc(O)c(O)c(F)c2F)c(OC)c1 | 18.8 µM (inactive) | 20.1 µM (inactive) | 11.5 µM (inactive) | 12.3 µM (inactive) | 4.22 µM (inactive) | 4.24 µM (inactive) | 35.2 µM (inactive) | 15.5 µM (inactive) | 18.5 µM (inactive) | 21.5 µM (inactive) | 15.6 µM (inactive) | 61.4 µM (inactive) | 46.7 µM (inactive) | 26.5 µM (inactive) | 22.5 µM (inactive) | 22.8 µM (inactive) | 23.9 µM (inactive) | 15.1 µM (inactive) | 35 µM (inactive) | –
COc1cccc(C2c3cc4c(cc3OC(C)(N3CCCC3)C2C)OCO4)c1 (centres undefined) | 7.78 µM (inactive) | 14 µM (inactive) | 3.92 µM (inactive) | 16.3 µM (inactive) | 23.1 µM (inactive) | 9.48 µM (inactive) | 13.1 µM (inactive) | 11.6 µM (inactive) | 8.83 µM (inactive) | 6.4 µM (inactive) | 11.4 µM (inactive) | 3.07 µM (inactive) | 10.2 µM (inactive) | 6.62 µM (inactive) | 10.9 µM (inactive) | 4.12 µM (inactive) | 20.7 µM (inactive) | 5.38 µM (inactive) | 7.73 µM (inactive) | –
O=C1C(SCCO)=C(SCCO)C(=O)c2ccccc21 | 1.48 µM (inactive) | 0.59 µM (active) | 0.238 µM (active) | 2.1 µM (inactive) | 1.17 µM (inactive) | 1.51 µM (inactive) | 1.08 µM (active) | 1.1 µM (active) | 1.48 µM (inactive) | 1.71 µM (inactive) | 1.77 µM (inactive) | 1.17 µM (inactive) | 0.805 µM (active) | 1.85 µM (inactive) | 1.62 µM (inactive) | 0.815 µM (active) | 2.05 µM (inactive) | 1.44 µM (inactive) | 1.16 µM (inactive) | –
O=C(CNc1ccc(Cl)cc1Cl)Nn1c(-c2ccccc2)nc2ccccc2c1=O | 14.8 µM (inactive) | > 10 µM (inactive) | 5.94 µM (inactive) | 14.9 µM (inactive) | 20 µM (inactive) | 13.9 µM (inactive) | 22.4 µM (inactive) | 18.2 µM (inactive) | 14.9 µM (inactive) | 33.8 µM (inactive) | 11.1 µM (inactive) | 23.9 µM (inactive) | 4.33 µM (inactive) | > 10 µM (inactive) | 19.5 µM (inactive) | 13.7 µM (inactive) | 14.5 µM (inactive) | 3.34 µM (inactive) | 23 µM (inactive) | –
COC(=O)C(CCc1ccccc1I)C1=CCC2(CC1)OCCO2 (centres undefined) | 65.5 µM (inactive) | > 100 µM (inactive) | 15 µM (inactive) | 27 µM (inactive) | 0.0435 µM (active) | 36.2 µM (inactive) | 23.1 µM (inactive) | 33.6 µM (inactive) | 36.9 µM (inactive) | > 100 µM (inactive) | 57.9 µM (inactive) | 37.6 µM (inactive) | 30.4 µM (inactive) | 70.1 µM (inactive) | 38.3 µM (inactive) | 28.2 µM (inactive) | 73.8 µM (inactive) | 81.5 µM (inactive) | 15.7 µM (inactive) | –
C=CCN1C(=O)C[C@H](Cc2ccccc2)NC(=O)C[C@H](Cc2ccccc2)N(CC=C)C(=O)C[C@H](Cc2ccccc2)NC(=O)C[C@@H]1Cc1ccccc1 | 8.79 µM (inactive) | 7.01 µM (inactive) | 20.7 µM (inactive) | 3.1 µM (inactive) | 3.35 µM (inactive) | 5.16 µM (inactive) | 7.03 µM (inactive) | 3.81 µM (inactive) | 23.6 µM (inactive) | 14 µM (inactive) | 2.3 µM (inactive) | > 100 µM (inactive) | 4.48 µM (inactive) | 51.8 µM (inactive) | 8.79 µM (inactive) | 8.09 µM (inactive) | > 100 µM (inactive) | 6.34 µM (inactive) | > 100 µM (inactive) | –
CCN1CCN(c2nc3ccccc3c3c2CCOc2ccccc2-3)CC1 | 23.5 µM (inactive) | > 39.3 µM (inactive) | 15 µM (inactive) | 32.7 µM (inactive) | 1.05 µM (active) | 2.85 µM (inactive) | 24.6 µM (inactive) | 17.2 µM (inactive) | 27.4 µM (inactive) | > 47.1 µM (inactive) | 17.4 µM (inactive) | 29.9 µM (inactive) | 28.8 µM (inactive) | 46.7 µM (inactive) | 39.5 µM (inactive) | 18.5 µM (inactive) | > 31.6 µM (inactive) | 17.7 µM (inactive) | > 45.1 µM (inactive) | –
CC(C)NC(NC(C)C)=C(S(=O)(=O)C(F)(F)C(F)(F)C(F)(F)C(F)(F)F)S(=O)(=O)C(F)(F)C(F)(F)C(F)(F)C(F)(F)F | > 100 µM (inactive) | > 100 µM (inactive) | > 100 µM (inactive) | > 100 µM (inactive) | > 100 µM (inactive) | > 100 µM (inactive) | > 100 µM (inactive) | > 100 µM (inactive) | > 100 µM (inactive) | > 100 µM (inactive) | > 100 µM (inactive) | > 100 µM (inactive) | > 100 µM (inactive) | > 100 µM (inactive) | > 100 µM (inactive) | > 100 µM (inactive) | > 100 µM (inactive) | > 100 µM (inactive) | > 100 µM (inactive) | –
CC1=NN(c2cccc(Cl)c2)C2(C1=C/C=C/c1ccccc1)C(Cl)C(=O)N2c1nc2ccccc2s1 (centres undefined) | 22.3 µM (inactive) | 30.2 µM (inactive) | 22.9 µM (inactive) | 19.3 µM (inactive) | 3.08 µM (inactive) | 1.51 µM (inactive) | 21.4 µM (inactive) | 39 µM (inactive) | 11 µM (inactive) | 27.4 µM (inactive) | 62.7 µM (inactive) | 21 µM (inactive) | 19.5 µM (inactive) | 27.9 µM (inactive) | 53 µM (inactive) | 23 µM (inactive) | 9.33 µM (inactive) | 31.5 µM (inactive) | 34.1 µM (inactive) | –
Cn1c(=O)c2c(nc3n(C)c(=O)c4ccccc4n23)n(C)c1=O | > 100 µM (inactive) | 18.9 µM (inactive) | 27.8 µM (inactive) | > 95.3 µM (inactive) | 24 µM (inactive) | 3.67 µM (inactive) | 39.1 µM (inactive) | > 49.3 µM (inactive) | 22.4 µM (inactive) | 30 µM (inactive) | > 93.5 µM (inactive) | 59.3 µM (inactive) | 43.6 µM (inactive) | 21 µM (inactive) | > 100 µM (inactive) | > 96.6 µM (inactive) | 21.9 µM (inactive) | 28.9 µM (inactive) | > 100 µM (inactive) | –
COc1cc2c(cc1OC)-c1c3cc(O)ccc3nn[n+]1CC2 | – | – | > 100 µM (inactive) | – | > 100 µM (inactive) | – | – | – | > 100 µM (inactive) | > 100 µM (inactive) | > 100 µM (inactive) | – | – | > 100 µM (inactive) | > 100 µM (inactive) | > 100 µM (inactive) | – | > 100 µM (inactive) | – | > 100 µM (inactive)
C1CN2CCNCCN(CCN1)CC2 | > 100 µM (inactive) | > 100 µM (inactive) | > 100 µM (inactive) | > 100 µM (inactive) | 20.9 µM (inactive) | > 100 µM (inactive) | > 100 µM (inactive) | > 100 µM (inactive) | > 100 µM (inactive) | > 100 µM (inactive) | > 100 µM (inactive) | > 100 µM (inactive) | > 100 µM (inactive) | > 100 µM (inactive) | > 100 µM (inactive) | > 100 µM (inactive) | > 100 µM (inactive) | > 100 µM (inactive) | > 100 µM (inactive) | –
CCC1(CC)N=C(C(F)(F)F)c2cc(C(=O)C(F)(F)F)c3ccccc3c2N1 | 3.44 µM (inactive) | 15.6 µM (inactive) | 1.77 µM (inactive) | 3.3 µM (inactive) | 2.95 µM (inactive) | 2.98 µM (inactive) | 3.3 µM (inactive) | 11.4 µM (inactive) | 3.14 µM (inactive) | 6.5 µM (inactive) | 14 µM (inactive) | 5.83 µM (inactive) | 2.67 µM (inactive) | 5.19 µM (inactive) | 8.63 µM (inactive) | 4.89 µM (inactive) | 3.6 µM (inactive) | 3.36 µM (inactive) | 13.4 µM (inactive) | –
Cc1ccc([N+](=O)[O-])cc1S(=O)(=O)Nc1ccc(C2=NN(S(=O)(=O)c3cc([N+](=O)[O-])ccc3C)C(c3ccccc3)C2)cc1 (centres undefined) | 26.1 µM (inactive) | 16.5 µM (inactive) | 26.3 µM (inactive) | 26.9 µM (inactive) | 35.6 µM (inactive) | 32 µM (inactive) | 28.6 µM (inactive) | 17.7 µM (inactive) | 21.7 µM (inactive) | 54.2 µM (inactive) | 27 µM (inactive) | < 0.01 µM (active) | 35.8 µM (inactive) | 35.1 µM (inactive) | 30.9 µM (inactive) | 30.9 µM (inactive) | 42.3 µM (inactive) | 16 µM (inactive) | 51.2 µM (inactive) | –
O=C1SC(c2ccccc2)(c2ccccc2)c2ccccc21 | – | – | 46.3 µM (inactive) | – | 41.3 µM (inactive) | – | 56.2 µM (inactive) | > 100 µM (inactive) | > 100 µM (inactive) | > 100 µM (inactive) | > 100 µM (inactive) | – | – | > 100 µM (inactive) | 88.3 µM (inactive) | 64.6 µM (inactive) | – | 68.1 µM (inactive) | – | 46.8 µM (inactive)
